Assay results published in ChEMBL document CHEMBL4665674, “Medicinal Chemistry Strategies for the Development of Kinase Inhibitors Targeting Point Mutations” (J Med Chem, 2020).
Blank lines part the entries; values can stand above or below the molecule they belong to.

Key:
[1] = cells; conditions: Homo sapiens, HN11, 72 h
[2] = Inhibition of LMNA-TRKA G595R (unknown origin) expressed in mouse Ba/F3 cells assessed as antiproliferative activity incubated for 72 hrs by CellTiter-Glo luciferase-based ATP detection assay; assay type: cell-based; conditions: BaF3, 72 h
[3] = Inhibition of CD74-ROS1 G2032R mutant (unknown origin) expressed in mouse Ba/F3 cells assessed as antiproliferative activity incubated for 72 hrs by CellTiter-Glo luciferase-based ATP detection assay; assay type: cell-based; conditions: BaF3, 72 h
[4] = target: T1, Protein cereblon/Tyrosine-protein kinase BTK (Homo sapiens, UniProt Q06187+Q96SW2); assay: Induction of CRBN-mediated degradation of wild type BTK (unknown origin) expressed in B cells derived from X-linked agammaglobulinemia patient by immunoblot analysis; assay type: cell-based; conditions: b-cell
[5] = target: T2, Protein cereblon/Tyrosine-protein kinase BTK (Homo sapiens, UniProt Q06187+Q96SW2, C481S); assay: Induction of CRBN-mediated degradation of BTK C481S mutant (unknown origin) expressed in B cells derived from X-linked agammaglobulinemia patient by immunoblot analysis; assay type: cell-based; conditions: b-cell
[6] = target: T3, Tyrosine-protein kinase BTK (Homo sapiens, UniProt Q06187); assay: Inhibition of BTK (unknown origin)
[7] = Antiproliferative activity against human NCI-H3122-CR1 cells harboring ALK L1196M mutant after 72 hrs by CellTiter-Glo assay; assay type: functional
[8] = Antiproliferative activity against human MGH021-4 cells harboring ALK G1269A mutant after 72 hrs by CellTiter-Glo assay; assay type: functional; conditions: MGH0214
[9] = Induction of CRBN-mediated degradation of human BTK C481T mutant expressed in human HeLa cells incubated for 4 days by Western blot analysis; assay type: cell-based; conditions: 96 h
[10] = Induction of CRBN-mediated degradation of human BTK C481G mutant expressed in human HeLa cells incubated for 4 days by Western blot analysis; assay type: cell-based; conditions: 96 h
[11] = target: T1, Protein cereblon/Tyrosine-protein kinase BTK; assay: Induction of CRBN-mediated degradation of wild type human BTK expressed in human HeLa cells incubated for 4 days by Western blot analysis; assay type: cell-based
[12] = Induction of CRBN-mediated degradation of human BTK C481A mutant expressed in human HeLa cells incubated for 4 days by Western blot analysis; assay type: cell-based; conditions: 96 h
[13] = target: T2, Protein cereblon/Tyrosine-protein kinase BTK; assay: Induction of CRBN-mediated degradation of human BTK C481S mutant expressed in human HeLa cells incubated for 4 days by Western blot analysis; assay type: cell-based
[14] = Induction of CRBN-mediated degradation of human BTK C481W mutant expressed in human HeLa cells incubated for 4 days by Western blot analysis; assay type: cell-based; conditions: 96 h
[15] = target: T3, Tyrosine-protein kinase BTK; assay: Inhibition of wild type BTK (unknown origin)
[16] = tested on: LoVo; assay: cells; assay type: functional, cell-based; conditions: Homo sapiens
[17] = tested on: NCI-H1975; assay: cells; conditions: Homo sapiens

T2 sequence (Q06187 2-659 C481S limits assumed, stated change not applied): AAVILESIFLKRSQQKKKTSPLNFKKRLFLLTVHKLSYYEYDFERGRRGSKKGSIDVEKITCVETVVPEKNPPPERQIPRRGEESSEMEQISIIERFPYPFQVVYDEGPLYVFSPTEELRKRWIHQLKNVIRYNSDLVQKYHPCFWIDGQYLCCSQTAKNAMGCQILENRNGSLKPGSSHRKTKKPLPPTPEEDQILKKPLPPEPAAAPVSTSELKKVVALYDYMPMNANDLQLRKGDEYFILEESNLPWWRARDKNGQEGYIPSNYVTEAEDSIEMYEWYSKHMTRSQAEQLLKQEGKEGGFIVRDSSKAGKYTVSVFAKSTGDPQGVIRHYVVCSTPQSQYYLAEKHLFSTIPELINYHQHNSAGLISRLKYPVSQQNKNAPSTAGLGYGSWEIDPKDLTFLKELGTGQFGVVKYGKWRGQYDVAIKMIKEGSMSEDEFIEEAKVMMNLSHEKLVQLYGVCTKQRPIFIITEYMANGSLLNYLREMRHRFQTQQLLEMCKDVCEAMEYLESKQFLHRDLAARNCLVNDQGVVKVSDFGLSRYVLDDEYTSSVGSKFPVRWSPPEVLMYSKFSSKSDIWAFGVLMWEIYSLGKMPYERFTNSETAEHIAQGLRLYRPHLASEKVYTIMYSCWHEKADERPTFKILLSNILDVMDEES
T2 sequence (Q96SW2 whole entry, stated change not applied): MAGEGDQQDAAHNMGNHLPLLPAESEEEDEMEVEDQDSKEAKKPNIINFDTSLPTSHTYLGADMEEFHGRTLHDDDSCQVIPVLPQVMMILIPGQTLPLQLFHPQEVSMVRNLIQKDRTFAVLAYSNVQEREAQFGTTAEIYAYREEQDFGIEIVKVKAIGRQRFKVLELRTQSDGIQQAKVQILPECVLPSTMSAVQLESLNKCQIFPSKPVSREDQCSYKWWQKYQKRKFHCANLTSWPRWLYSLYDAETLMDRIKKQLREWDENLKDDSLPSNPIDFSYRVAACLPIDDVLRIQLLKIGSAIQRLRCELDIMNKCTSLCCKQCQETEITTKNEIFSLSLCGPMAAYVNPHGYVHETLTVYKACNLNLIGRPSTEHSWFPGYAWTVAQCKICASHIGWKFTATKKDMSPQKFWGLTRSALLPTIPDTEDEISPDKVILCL
T1 sequence (Q06187 whole entry): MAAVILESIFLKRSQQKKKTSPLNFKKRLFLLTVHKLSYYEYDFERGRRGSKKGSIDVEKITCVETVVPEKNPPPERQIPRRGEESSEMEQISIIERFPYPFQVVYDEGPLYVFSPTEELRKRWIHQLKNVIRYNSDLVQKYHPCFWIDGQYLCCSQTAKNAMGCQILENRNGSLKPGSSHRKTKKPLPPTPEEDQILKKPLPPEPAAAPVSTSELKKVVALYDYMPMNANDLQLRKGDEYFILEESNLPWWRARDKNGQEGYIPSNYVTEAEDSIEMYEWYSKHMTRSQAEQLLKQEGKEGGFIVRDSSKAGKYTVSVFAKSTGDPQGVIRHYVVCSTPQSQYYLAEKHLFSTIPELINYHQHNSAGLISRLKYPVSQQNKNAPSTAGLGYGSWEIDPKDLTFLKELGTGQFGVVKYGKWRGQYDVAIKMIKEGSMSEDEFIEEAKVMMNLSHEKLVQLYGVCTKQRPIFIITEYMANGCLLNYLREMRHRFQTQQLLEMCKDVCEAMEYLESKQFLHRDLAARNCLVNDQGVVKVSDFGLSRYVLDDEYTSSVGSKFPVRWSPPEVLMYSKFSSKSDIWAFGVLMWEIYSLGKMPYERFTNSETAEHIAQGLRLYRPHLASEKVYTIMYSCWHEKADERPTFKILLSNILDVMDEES
T1 sequence (Q96SW2 whole entry): as the sequence (Q96SW2 whole entry, stated change not applied) above
T3 sequence (Q06187 whole entry): as the sequence (Q06187 whole entry) above

Compound: C[C@H]1CNC(=O)c2cnn3ccc(nc23)N[C@H](C)c2cc(F)ccc2O1 [REPOTRECTINIB]
IC50 [2]: 0.4 nM | IC50 [3]: 3.3 nM

Compound: Cc1cc(Nc2ncc(Cl)c(Nc3ccccc3S(=O)(=O)C(C)C)n2)c(OC(C)C)cc1C1CCNCC1 [CERITINIB]
GI50 [7]: 230 nM | GI50 [8]: 80 nM

Compound: CN(C)C/C=C/C(=O)Nc1cc2c(Nc3ccc(F)c(Cl)c3)ncnc2cc1O[C@H]1CCOC1 [AFATINIB]
IC50 [16]: 15 nM | IC50 [17]: 22 nM

Compound: C[C@@H](Oc1cc(-c2cnn(C3CCNCC3)c2)cnc1N)c1c(Cl)ccc(F)c1Cl [CRIZOTINIB]
GI50 [7]: 2880 nM | GI50 [8]: 500 nM

Second part, the molecule after the results:

IC50 [1]: 2130 nM
Compound: C=CC(=O)Nc1cccc(Oc2nc(Nc3ccc(N4CCN(C)CC4)cc3OC)ncc2Cl)c1

DC50 [4]: 14.6 nM | DC50 [5]: 14.9 nM
Compound: Nc1ncnc2c1c(-c1ccc(Oc3ccccc3)cc1)nn2[C@@H]1CCCN(CCOCCOCC(=O)Nc2ccc3c(c2)CN(C2CCC(=O)NC2=O)C3=O)C1 (some centres undefined)

IC50 [6]: 5.1 nM
Compound: Cc1c(NC(=O)c2ccc(C(C)(C)C)cc2)cccc1-c1cn(C)c(=O)c(Nc2ccc(C(=O)N3CCN(CCCCCCNC(=O)CNc4cccc5c4C(=O)N(C4CCC(=O)NC4=O)C5=O)CC3)cc2)n1 (centres undefined)

DC50 [9]: 18 nM | DC50 [10]: 18 nM | DC50 [11]: 18 nM | DC50 [12]: 18 nM | DC50 [13]: 18 nM | DC50 [14]: 18 nM
Compound: Nc1ncnc2c1c(-c1ccc(Oc3ccccc3)cc1)nn2[C@@H]1CCCN(C(=O)c2cn(CCOCCOCCOCCCc3ccc4c(c3)CN(C3CCC(=O)NC3=O)C4=O)nn2)C1 (some centres undefined)

IC50 [15]: 2.9 nM
Compound: NC(=O)[C@H]1CCN(c2ncnc(N)c2F)C[C@@H]1N1CCC[C@@H](Nc2cc(Cl)cc(C(F)(F)F)c2)C1=O [VECABRUTINIB]
